These results are taken from PubChem BioAssay AID1996.

Values after ≈ are worked out from the molar mass of the structure shown.

The conditions of this data set: buffer; pH 7.4; 200.0 µM.
As usually defined, the kinetic solubility is solubility judged after dilution from a stock solution rather than from solid. As for `CCC1CCCCN1CC(=O)Nc1ccc2c(c1)OCCO2` (configuration not stated), the solubility (kinetic) was over 45.7 µg/mL.

Turning to `C#CCN(C)CCCOc1ccc(Cl)cc1Cl.Cl`, the solubility (kinetic) stood at 8.7 µg/mL.

`Cc1nn(CC(=O)OCC(=O)Nc2cccc(S(N)(=O)=O)c2)c(C)c1[N+](=O)[O-]` gave a kinetic solubility of over 61.7 µg/mL.

For the compound `COC(=O)c1cccc(NS(C)(=O)=O)c1`, the kinetic solubility was over 34.4 µg/mL.

For `O=C(Nc1ccncc1)c1sc2ccccc2c1Cl`, the solubility (kinetic) was 0.8 µg/mL (≈ 2.77 µM).

In turn, `Cc1ccc(NC(=O)c2ccc3c(c2)OCO3)cc1Cl` registered a kinetic solubility of 0.9 µg/mL (≈ 3.11 µM).

Consider `Cn1c(COc2ccccc2)nc2ccccc21`, for which the kinetic solubility stood at 23.2 µg/mL (≈ 97.4 µM).

As to `O=C(c1cc(S(=O)(=O)N2CCOCC2)ccc1F)N1CCc2ccccc21`, the solubility (kinetic) is over 58.6 µg/mL.

The compound `Cc1cc(C)cc(NC(=O)C2CC3CCC2C3)c1` (configuration not stated) registered a solubility (kinetic) of 6.8 µg/mL (≈ 27.9 µM).

`O=C(CN1CCCC1)Nc1cccc(Cl)c1Cl` yielded a kinetic solubility of 28.4 µg/mL (≈ 104 µM).

For `S=C(NCc1ccncc1)Nc1ccc(Br)cc1Cl`, the solubility (kinetic) amounted to 40.9 µg/mL (≈ 115 µM). The solubility kinetic values of the last two compounds are within 1.5-fold of each other.

`O=C(COC(=O)C1CCN(S(=O)(=O)c2cccs2)CC1)Nc1ccc(F)cc1Cl` returned a solubility (kinetic) of 17.7 µg/mL (≈ 38.4 µM).

As to `Cc1cc(C(=O)N2CCN(c3ncccc3C#N)CC2)no1`, the kinetic solubility was determined as 43.7 µg/mL (≈ 147 µM).

With `O=C(Nc1cccc(Cl)c1N1CCOCC1)c1cccnc1`, the solubility (kinetic) was over 47.7 µg/mL.

`N#Cc1ccccc1OCC(=O)Nc1ccccc1C(=O)NC1CC1` registered a solubility (kinetic) of 48.3 µg/mL (≈ 144 µM).

Take `O=C(OCC(=O)N1CCCCC1)c1cc(=O)[nH]c2ccccc12`: the solubility (kinetic) is over 47.2 µg/mL.

The compound `O=C(c1cc2cc(Cl)ccc2[nH]1)N1CCC2(CC1)OCCO2` registered a kinetic solubility of 16 µg/mL (≈ 49.9 µM).

As for `CCc1cc2c(NC(Cc3ccccc3)C(=O)O)ncnc2s1` (configuration not stated), the solubility (kinetic) was over 49.1 µg/mL.

On to `CCNc1nc(NCc2ccccc2)nc(SCC(N)=O)n1`, for which the solubility (kinetic) came out at 42.2 µg/mL (≈ 133 µM).

For the compound `O=C(NC(=O)C(F)(F)F)Nc1ccc(S(=O)(=O)Nc2nccs2)cc1`, the kinetic solubility was over 59.2 µg/mL.

The compound `Cc1ccc(C(=O)N2CCN(c3ccc(C(F)(F)F)cn3)CC2)o1` yielded a kinetic solubility of 19.8 µg/mL (≈ 58.4 µM).

With `O=S(=O)(c1ccc(Cl)cc1)N1CCCC1c1cccnc1` (configuration not stated), the solubility (kinetic) was over 48.4 µg/mL.

`N#C/C(=C\c1ccccc1)c1ccccn1` displayed a solubility (kinetic) of 8.6 µg/mL (≈ 41.7 µM).

In the case of `O=C(c1cccc(O)c1)N1CCN(C(=O)C2CC2)CC1`, the solubility (kinetic) is over 41.1 µg/mL.

`Cc1cc(C)cc(NS(=O)(=O)c2ccc(NC(=O)c3ccccc3C(=O)O)cc2)c1`: the solubility (kinetic) is 54.2 µg/mL (≈ 128 µM).

On to `CN(CCN1CCOCC1)Cc1nc(-c2ccc(Cl)cc2)no1`, for which the solubility (kinetic) was determined as 38.1 µg/mL (≈ 113 µM).

`CCc1ccc(-c2cc(C(=O)O)c3ccccc3n2)s1` returned a kinetic solubility of over 42.5 µg/mL.

In turn, `O=C(COC(=O)c1ccccc1)NCCC1=CCCCC1` had a kinetic solubility of 24.1 µg/mL (≈ 83.9 µM).

`O=C(Nc1cccc(S(=O)(=O)N2CCCCCC2)c1)c1cncc(Br)c1` had a kinetic solubility of 13.1 µg/mL (≈ 29.9 µM).

`COc1ccccc1C(=O)NCC(=O)Nc1cccnc1` came in with a solubility (kinetic) of over 42.8 µg/mL.

The compound `Nc1nc(-c2ccc(Oc3ccccc3)cc2)cs1` returned a solubility (kinetic) of 12.8 µg/mL (≈ 47.7 µM).

Regarding `Cc1ccc2oc(C(=O)N(Cc3ccccc3)C3CCS(=O)(=O)C3)c(C)c2c1` (configuration not stated), the kinetic solubility turned out to be 1.6 µg/mL (≈ 4.03 µM).

`O=C(O)c1nn2cc(CCO)cnc2c1Cl` had a kinetic solubility of over 36.2 µg/mL.

With `O=C(O)CN1C(=O)C(=O)N(Cc2ccc(Cl)cc2Cl)C1=O`, the solubility (kinetic) is over 49.7 µg/mL.

As to `COc1ccc(/C=C/C(=O)NC2=NCCS2)cc1OC`, the solubility (kinetic) is 1.5 µg/mL (≈ 5.13 µM).

With `COC(=O)c1sccc1NC(=O)Nc1ccccc1C`, the kinetic solubility turned out to be 23.6 µg/mL (≈ 81.3 µM). Compared with the last compound, the solubility kinetic is about 16-fold higher.

As for `Clc1ccc2nc(-c3ccccc3)cn2c1`, the kinetic solubility amounted to 1.4 µg/mL (≈ 6.12 µM).

Turning to `CC(=O)Nc1ccc(OCC(=O)N2CCc3ccccc3C2)cc1`, the solubility (kinetic) is over 48.7 µg/mL.

Compound `COc1ccccc1NC(=S)NC(=O)CCc1ccccc1` gave a kinetic solubility of 0.7 µg/mL (≈ 2.23 µM).

`COc1ccccc1C1Nc2ccccc2NC2=C1C(=O)CC(C)(C)C2` (configuration not stated): the solubility (kinetic) came to 51.6 µg/mL (≈ 148 µM).

For the compound `O=C(N1CCCCC1)N1CCN(S(=O)(=O)c2ccccc2)CC1`, the kinetic solubility is over 50.6 µg/mL.

`CCCC1(c2ccccc2)NC(=O)N(CC(=O)Nc2ccc3c(c2)OCCO3)C1=O` (configuration not stated) returned a kinetic solubility of 36 µg/mL (≈ 87.9 µM).

The compound `Nc1ccc(SCc2cccnc2)cc1` registered a kinetic solubility of 31 µg/mL (≈ 143 µM).

As for `O=C(OCC(=O)N1CCOCC1)c1ccc(F)cc1Cl`, the kinetic solubility is over 45.3 µg/mL.

The compound `O=C(O)CCSC(=S)N1CCOCC1` gave a kinetic solubility of 29.3 µg/mL (≈ 125 µM).

Consider `O=C(NCC1CC1)Nc1ccccc1`, for which the solubility (kinetic) was over 28.5 µg/mL.

The compound `Cc1ccc(-n2cnc3sc(C)c(C)c3c2=O)cc1` came in with a kinetic solubility of 0.8 µg/mL (≈ 2.96 µM).

`CCN(CC)S(=O)(=O)c1cccc(NC2=NCCCCC2)c1` showed a kinetic solubility of 46.8 µg/mL (≈ 145 µM).

On to `O=c1[nH]c2ccccc2[n+]([O-])c1-c1ccccc1`, for which the kinetic solubility is over 35.7 µg/mL.

In the case of `O=C1NC2=C(C(=O)CCC2)C(c2ccccc2[N+](=O)[O-])N1` (configuration not stated), the solubility (kinetic) was over 43.1 µg/mL.

`CC(C)Oc1ccc(C(=O)NCC(=O)O)cc1` returned a solubility (kinetic) of over 35.6 µg/mL.

Take `Cc1ccc(C(=O)N2CCN(c3ccccn3)CC2)cc1`: the kinetic solubility was over 42.2 µg/mL.
